According to ChEMBL document CHEMBL1140423, “(6,7-Dimethoxy-2,4-dihydroindeno[1,2-c]pyrazol-3-yl)phenylamines: platelet-derived growth factor receptor tyrosine kinase inhibitors with broad antiproliferative activity against tumor cells” (J Med Chem, 2005):

Legend:
[1] = target: Platelet-derived growth factor receptor beta (Homo sapiens, UniProt P09619); test: Inhibitory activity against PDGFRbeta kinase
[2] = target: Insulin receptor (Homo sapiens, UniProt P06213); test: Inhibitory activity against IRK
[3] = target: Fibroblast growth factor receptor 1 (Homo sapiens, UniProt P11362); test: Inhibitory activity against bFGFR1
Sequence of Fibroblast growth factor receptor 1 (P11362 whole entry): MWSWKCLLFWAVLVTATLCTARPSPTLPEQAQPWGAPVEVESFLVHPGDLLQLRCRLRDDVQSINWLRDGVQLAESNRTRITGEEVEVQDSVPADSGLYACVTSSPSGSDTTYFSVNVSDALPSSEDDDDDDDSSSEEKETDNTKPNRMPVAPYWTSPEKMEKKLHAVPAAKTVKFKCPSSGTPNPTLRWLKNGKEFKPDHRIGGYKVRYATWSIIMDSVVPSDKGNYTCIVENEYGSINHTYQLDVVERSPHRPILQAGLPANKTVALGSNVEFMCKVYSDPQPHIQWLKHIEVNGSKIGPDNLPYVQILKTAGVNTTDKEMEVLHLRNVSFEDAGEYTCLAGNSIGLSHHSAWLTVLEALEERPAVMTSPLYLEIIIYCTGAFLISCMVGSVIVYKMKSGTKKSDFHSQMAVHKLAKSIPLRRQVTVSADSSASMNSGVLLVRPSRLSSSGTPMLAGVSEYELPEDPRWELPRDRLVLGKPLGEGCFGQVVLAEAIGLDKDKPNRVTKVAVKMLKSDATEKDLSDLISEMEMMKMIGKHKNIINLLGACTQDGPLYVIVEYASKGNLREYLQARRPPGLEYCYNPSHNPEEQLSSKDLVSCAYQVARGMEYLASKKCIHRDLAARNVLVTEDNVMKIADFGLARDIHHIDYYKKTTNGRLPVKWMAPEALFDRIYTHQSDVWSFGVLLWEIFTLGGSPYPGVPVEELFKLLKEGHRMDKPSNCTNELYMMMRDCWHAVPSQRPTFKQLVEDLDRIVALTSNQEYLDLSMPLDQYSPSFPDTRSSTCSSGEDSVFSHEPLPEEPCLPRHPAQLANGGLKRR

[4] = target: Tyrosine-protein kinase Fyn (Homo sapiens, UniProt P06241); test: Inhibitory activity against FYN
[5] = target: Casein kinase II (Homo sapiens, UniProt P19784+P67870+P68400); test: Inhibitory activity against Casein Kinase 2; format: protein-complex assay
Sequence of Casein kinase II (P67870 whole entry): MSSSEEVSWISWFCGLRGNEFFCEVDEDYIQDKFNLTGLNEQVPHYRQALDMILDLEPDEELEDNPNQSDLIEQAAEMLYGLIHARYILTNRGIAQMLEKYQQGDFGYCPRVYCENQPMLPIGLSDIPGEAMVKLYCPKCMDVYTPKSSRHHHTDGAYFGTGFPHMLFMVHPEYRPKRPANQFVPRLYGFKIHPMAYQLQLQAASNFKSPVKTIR
Sequence of Casein kinase II (P68400 whole entry): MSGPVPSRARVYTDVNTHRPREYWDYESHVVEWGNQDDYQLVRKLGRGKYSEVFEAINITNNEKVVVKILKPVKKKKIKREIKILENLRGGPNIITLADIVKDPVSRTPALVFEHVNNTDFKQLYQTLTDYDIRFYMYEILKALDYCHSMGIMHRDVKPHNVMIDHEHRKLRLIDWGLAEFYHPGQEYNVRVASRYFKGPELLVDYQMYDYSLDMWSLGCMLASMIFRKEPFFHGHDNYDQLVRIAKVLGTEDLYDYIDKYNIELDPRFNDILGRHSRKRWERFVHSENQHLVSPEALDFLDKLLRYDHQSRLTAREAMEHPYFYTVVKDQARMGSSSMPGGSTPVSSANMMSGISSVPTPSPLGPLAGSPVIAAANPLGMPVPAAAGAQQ
Sequence of Casein kinase II (P19784 whole entry): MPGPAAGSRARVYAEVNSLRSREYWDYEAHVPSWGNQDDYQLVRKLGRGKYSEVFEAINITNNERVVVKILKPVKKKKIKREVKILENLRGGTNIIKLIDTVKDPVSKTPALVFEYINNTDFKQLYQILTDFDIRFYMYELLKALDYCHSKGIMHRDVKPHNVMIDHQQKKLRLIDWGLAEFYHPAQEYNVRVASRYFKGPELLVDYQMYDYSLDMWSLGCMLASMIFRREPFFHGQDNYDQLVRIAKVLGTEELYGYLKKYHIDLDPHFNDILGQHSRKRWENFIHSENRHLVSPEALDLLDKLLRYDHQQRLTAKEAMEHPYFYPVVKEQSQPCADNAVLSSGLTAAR

[6] = Inhibitory activity against Calmodulin Kinase
[7] = target: Platelet-derived growth factor receptor alpha (Homo sapiens, UniProt P16234); test: Inhibitory activity against PDGFRalpha
[8] = target: cAMP-dependent protein kinase (PKA) (Homo sapiens, UniProt P22694+P17612+P22612); test: Inhibitory activity against PKA; format: protein assay
[9] = target: Vascular endothelial growth factor receptor (Homo sapiens, UniProt P17948+P35916+P35968); test: Inhibitory activity against VEGFR; format: protein assay
[10] = tested on: NCI-H460; test: Antiproliferative activity against human lung tumor cell line H460; format: functional, cell-based
[11] = target: Receptor tyrosine-protein kinase erbB-2 (Homo sapiens, UniProt P04626); test: Inhibitory activity against HER2
Sequence of Receptor tyrosine-protein kinase erbB-2 (P04626 whole entry): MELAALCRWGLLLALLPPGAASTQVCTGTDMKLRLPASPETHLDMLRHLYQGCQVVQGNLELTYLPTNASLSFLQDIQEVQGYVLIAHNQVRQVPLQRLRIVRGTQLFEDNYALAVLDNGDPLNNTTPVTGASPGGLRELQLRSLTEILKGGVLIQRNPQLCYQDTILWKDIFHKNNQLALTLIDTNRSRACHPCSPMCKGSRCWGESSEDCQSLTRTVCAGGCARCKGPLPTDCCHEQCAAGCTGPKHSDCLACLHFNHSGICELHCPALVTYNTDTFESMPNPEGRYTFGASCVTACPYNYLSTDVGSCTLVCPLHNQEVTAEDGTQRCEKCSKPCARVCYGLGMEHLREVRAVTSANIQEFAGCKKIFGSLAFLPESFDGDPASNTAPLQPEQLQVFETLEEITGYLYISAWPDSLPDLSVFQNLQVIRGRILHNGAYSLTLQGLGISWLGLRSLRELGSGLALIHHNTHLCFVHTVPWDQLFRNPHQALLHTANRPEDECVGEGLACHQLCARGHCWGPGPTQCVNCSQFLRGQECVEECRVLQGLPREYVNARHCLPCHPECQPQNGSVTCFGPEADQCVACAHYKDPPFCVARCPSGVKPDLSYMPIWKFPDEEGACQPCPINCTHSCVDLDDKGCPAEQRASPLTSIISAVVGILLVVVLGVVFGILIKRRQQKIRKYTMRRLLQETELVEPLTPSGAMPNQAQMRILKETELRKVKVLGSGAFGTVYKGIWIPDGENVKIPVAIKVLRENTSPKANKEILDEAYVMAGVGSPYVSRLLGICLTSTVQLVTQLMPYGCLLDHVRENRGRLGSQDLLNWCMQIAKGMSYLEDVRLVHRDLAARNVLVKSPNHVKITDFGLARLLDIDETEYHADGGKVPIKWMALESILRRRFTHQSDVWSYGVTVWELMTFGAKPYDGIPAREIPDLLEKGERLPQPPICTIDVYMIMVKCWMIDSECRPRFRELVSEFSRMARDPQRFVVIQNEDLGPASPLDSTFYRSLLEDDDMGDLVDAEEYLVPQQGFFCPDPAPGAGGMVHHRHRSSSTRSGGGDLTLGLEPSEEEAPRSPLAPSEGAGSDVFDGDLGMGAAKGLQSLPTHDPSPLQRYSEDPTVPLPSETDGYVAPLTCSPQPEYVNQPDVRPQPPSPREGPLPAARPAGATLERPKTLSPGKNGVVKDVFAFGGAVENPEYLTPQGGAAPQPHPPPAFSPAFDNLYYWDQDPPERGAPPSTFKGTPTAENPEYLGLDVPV

[12] = tested on: A-375; test: Antiproliferative activity against human melanoma tumor cell line A375; format: functional, cell-based
[13] = tested on: ASPC1; test: Antiproliferative activity against human pancreatic tumor cell line AsPC1; format: functional, cell-based
[14] = tested on: HUVEC; test: Antiproliferative activity against LSGS stimulated HUVEC; format: functional, cell-based; conditions: Homo sapiens
[15] = tested on: LoVo; test: Antiproliferative activity against human colon tumor cell line LoVo; format: functional, cell-based
[16] = target: Cyclin-dependent kinase 1 (Homo sapiens, UniProt P06493); test: Inhibitory activity against CDK1
[17] = tested on: U-87 MG; test: Antiproliferative activity against human glioma tumor cell line U87MG; format: functional, cell-based, U-87MG ATCC
[18] = target: Focal adhesion kinase 1 (Homo sapiens, UniProt Q05397); test: Inhibitory activity against FAK
[19] = tested on: LNCaP; test: Antiproliferative activity against human prostate tumor cell line LnCAP; format: functional, cell-based
[20] = tested on: T47D; test: Antiproliferative activity against human breast tumor cell line T47D; format: functional, cell-based
[21] = target: Glycogen synthase kinase-3 (Homo sapiens, UniProt P49840+P49841); test: Inhibitory activity against GSK3; format: protein assay
[22] = target: Cyclin-dependent kinase 4 (Homo sapiens, UniProt P11802); test: Inhibitory activity against CDK4
Sequence of Cyclin-dependent kinase 4 (P11802 whole entry): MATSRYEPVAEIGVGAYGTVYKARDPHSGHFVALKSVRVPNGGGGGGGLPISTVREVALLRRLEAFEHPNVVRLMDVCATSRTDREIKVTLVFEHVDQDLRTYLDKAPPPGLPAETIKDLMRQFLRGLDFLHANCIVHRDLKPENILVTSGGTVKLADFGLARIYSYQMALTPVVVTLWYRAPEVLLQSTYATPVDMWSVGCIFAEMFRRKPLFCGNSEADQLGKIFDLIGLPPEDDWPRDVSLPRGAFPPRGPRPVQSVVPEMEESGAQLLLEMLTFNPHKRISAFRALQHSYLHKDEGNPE

[23] = target: Cyclin-dependent kinase 7 (Homo sapiens, UniProt P50613); test: Inhibitory activity against CDK7
[24] = target: Mitogen-activated protein kinase 1 (Homo sapiens, UniProt P28482); test: Inhibitory activity against MAPK
[25] = target: Proto-oncogene tyrosine-protein kinase Src (Homo sapiens, UniProt P12931); test: Inhibitory activity against c-SRC
Sequence of Proto-oncogene tyrosine-protein kinase Src (P12931 2-536 limits assumed): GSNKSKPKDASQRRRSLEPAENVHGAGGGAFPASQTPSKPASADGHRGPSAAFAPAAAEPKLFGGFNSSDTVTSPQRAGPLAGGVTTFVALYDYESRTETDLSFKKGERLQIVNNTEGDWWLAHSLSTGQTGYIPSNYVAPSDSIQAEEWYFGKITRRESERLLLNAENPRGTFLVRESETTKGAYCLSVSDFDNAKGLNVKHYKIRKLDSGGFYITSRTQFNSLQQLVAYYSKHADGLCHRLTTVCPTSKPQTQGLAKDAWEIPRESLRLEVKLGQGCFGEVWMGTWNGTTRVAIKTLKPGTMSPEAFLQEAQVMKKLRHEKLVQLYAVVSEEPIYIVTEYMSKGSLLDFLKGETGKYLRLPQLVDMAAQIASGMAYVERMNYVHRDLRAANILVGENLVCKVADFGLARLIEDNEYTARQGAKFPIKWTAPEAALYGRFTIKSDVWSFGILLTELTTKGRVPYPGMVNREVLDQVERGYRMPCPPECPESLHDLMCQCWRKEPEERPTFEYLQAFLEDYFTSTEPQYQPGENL

[26] = target: Cyclin-dependent kinase 2 (Homo sapiens, UniProt P24941); test: Inhibitory activity against CDK2
[27] = tested on: PC-3; test: Antiproliferative activity against human prostate tumor cell line PC3; format: functional, cell-based

Sequence of Platelet-derived growth factor receptor beta (P09619 whole entry): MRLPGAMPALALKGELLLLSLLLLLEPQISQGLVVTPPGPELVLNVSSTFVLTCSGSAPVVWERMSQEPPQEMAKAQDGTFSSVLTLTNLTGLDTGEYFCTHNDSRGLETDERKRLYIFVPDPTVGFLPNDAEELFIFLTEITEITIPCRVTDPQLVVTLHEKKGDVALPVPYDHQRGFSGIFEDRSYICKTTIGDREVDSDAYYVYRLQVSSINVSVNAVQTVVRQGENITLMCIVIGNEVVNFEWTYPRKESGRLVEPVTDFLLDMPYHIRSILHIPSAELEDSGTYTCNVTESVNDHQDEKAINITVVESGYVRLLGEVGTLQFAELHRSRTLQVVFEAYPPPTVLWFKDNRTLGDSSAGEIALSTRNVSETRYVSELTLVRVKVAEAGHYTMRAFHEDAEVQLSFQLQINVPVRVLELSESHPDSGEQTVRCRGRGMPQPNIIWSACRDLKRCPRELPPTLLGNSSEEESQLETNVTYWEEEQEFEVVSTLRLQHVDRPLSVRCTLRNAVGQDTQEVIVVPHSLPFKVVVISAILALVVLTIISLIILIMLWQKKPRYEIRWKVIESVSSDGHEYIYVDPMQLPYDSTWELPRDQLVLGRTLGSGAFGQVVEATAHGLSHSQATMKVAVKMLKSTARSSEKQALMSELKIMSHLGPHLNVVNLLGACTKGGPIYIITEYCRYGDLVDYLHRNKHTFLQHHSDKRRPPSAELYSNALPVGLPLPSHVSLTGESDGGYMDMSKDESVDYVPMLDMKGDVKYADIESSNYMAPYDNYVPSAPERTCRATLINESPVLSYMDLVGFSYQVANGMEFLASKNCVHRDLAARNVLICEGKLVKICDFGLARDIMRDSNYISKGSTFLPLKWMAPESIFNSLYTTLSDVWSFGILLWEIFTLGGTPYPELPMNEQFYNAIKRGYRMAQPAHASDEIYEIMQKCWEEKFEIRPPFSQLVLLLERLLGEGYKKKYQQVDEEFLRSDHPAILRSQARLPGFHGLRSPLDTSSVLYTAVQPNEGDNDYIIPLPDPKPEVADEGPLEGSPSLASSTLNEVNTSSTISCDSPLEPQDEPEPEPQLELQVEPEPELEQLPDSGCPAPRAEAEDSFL

IC50 [1] | IC50 [10] | IC50 [12] | IC50 [13] | IC50 [15] | IC50 [17] | IC50 [19] | IC50 [20] | IC50 [27] | SMILES | IC50 [14] | further results
410 nM |  |  |  |  |  |  |  |  | COc1cc2c(cc1OC)-c1n[nH]c(Nc3ccc(Cl)c(Cl)c3)c1C2 |  | 
4.2 nM | 10 nM | 7 nM | 592 nM | 17 nM | 13000 nM | 9 nM | 32 nM | 27 nM | COc1cc2c(cc1OC)-c1n[nH]c(Nc3cccc(F)c3)c1C2 | 4870 nM | IC50 [2]: > 100000 nM; IC50 [3]: 45800 nM; IC50 [4]: 378 nM; IC50 [5]: > 100000 nM; IC50 [6]: > 10000 nM; IC50 [7]: 45 nM; IC50 [8]: > 100000 nM; IC50 [9]: 3100 nM; IC50 [11]: > 10000 nM; IC50 [16]: > 100000 nM; IC50 [18]: > 100000 nM; IC50 [21]: 13000 nM; IC50 [22]: > 100000 nM; IC50 [23]: 56700 nM; IC50 [24]: > 100000 nM; IC50 [25]: 185 nM; IC50 [26]: > 10000 nM
 | 4 nM | 4 nM | 355 nM | 4 nM | > 100000 nM | 5 nM | 33 nM |  | COc1cccc(Nc2[nH]nc3c2Cc2cc(OC)c(OC)cc2-3)c1 | 11 nM | 
5 nM | 6 nM | 6 nM | 331 nM | 6 nM | > 100000 nM | 2 nM | 37 nM | 18 nM | COc1cc2c(cc1OC)-c1n[nH]c(Nc3cccc(Br)c3)c1C2 | 1480 nM | 
17 nM | 8400 nM | 8850 nM | 6820 nM | 2700 nM | > 50000 nM | 1200 nM | 4410 nM | 31200 nM | COc1cc2c(cc1OC)-c1[nH]nc(-c3ccccc3)c1C2 | 1390 nM | 
38 nM | 31 nM | 35 nM | 290 nM | 28 nM | > 100000 nM | 255 nM | 440 nM | 21 nM | COc1cc2c(cc1OC)-c1n[nH]c(Nc3cccc(C(F)(F)F)c3)c1C2 | 2500 nM | 
> 800 nM |  |  |  |  |  |  |  |  | COc1cc2c(cc1OC)-c1n[nH]c(Nc3cccc(C(=O)O)c3)c1C2 |  | 
5420 nM |  |  |  |  |  |  |  |  | COc1cc2c(cc1OC)-c1n[nH]c(Nc3ccc(Cl)cc3Cl)c1C2 |  | 
 |  |  |  |  | 24000 nM |  |  |  | COc1cc2c(cc1OC)-c1n[nH]c(Nc3cccc(Cl)c3)c1C2 |  | 
310 nM |  |  |  |  |  |  |  |  | COc1cc2c(cc1OC)-c1n[nH]c(Nc3cc(Cl)cc(Cl)c3)c1C2 |  | 
 | 29 nM | 15 nM | 4450 nM | 19 nM | > 100000 nM | 1 nM | 42 nM |  | COc1cc2c(cc1OC)-c1n[nH]c(Nc3cccc(C)c3)c1C2 | 8 nM | 
33 nM |  |  |  |  |  |  |  |  | COC(=O)c1cccc(Nc2[nH]nc3c2Cc2cc(OC)c(OC)cc2-3)c1 |  | 
 | 2800 nM | 1190 nM | > 10000 nM | 798 nM | > 100000 nM | 1700 nM | 4700 nM | 7340 nM | COc1cccc2c1Cc1c-2n[nH]c1Nc1ccccc1 | 283 nM | 
 |  | > 50000 nM | > 10000 nM |  | > 100000 nM | 14400 nM | > 10000 nM | > 10000 nM | COc1ccc2c(c1)-c1n[nH]c(Nc3ccccc3)c1C2 |  | 
6220 nM |  |  |  |  |  |  |  |  | COc1cc2c(cc1OC)-c1n[nH]c(Nc3cc(Cl)ccc3Cl)c1C2 |  | 
9 nM | 353 nM | 62 nM | 2160 nM | 124 nM | 21000 nM | 600 nM | 420 nM | 108 nM | COc1cc2c(cc1OC)-c1n[nH]c(Nc3ccccc3)c1C2 | 31 nM | 
